Test results: patent publication US10688197B2, “Non-alcoholic fatty liver regulator 14-3-3 protein” (Korea University Research and Business Foundation, priority 2015, dated 2020)

Assays:
[1] = tested on: primary mouse hepatocytes; assay: mRNA expression by real-time PCR in primary mouse hepatocytes; assay type: cell-based; conditions: for mRNA expression of SREBP-1c and FAT/CD36: overexpression, oleic acid, FIG. 7B
Protocol: HepG2 cells and primary mouse hepatocytes were separately seeded in a 6-well plate at a density of 4×10^5 cells per each well, and then treated with 200 μM of oleic acid (OA) for 72 hours. For mRNA extraction, the corresponding cells were lysed with 1 ml/well of TRIzol (Invitrogen), 200 μl of chloroform was added thereto and mixed well, the resultant cells were maintained at room temperature for 5 minutes and then centrifuged at 12,000×g and 4° C. for 15 minutes, the obtained supernatant was mixed with 500 μl of isopropanol and then put on ice for 10 minutes, the resulting supernatant was centrifuged at 12,000×g and 4° C. for 15 minutes to remove a supernatant, and then pellets were dissolved with tertiary distilled water treated with diethyl pyrocarbonate (DEPC). 2 μg of mRNA was synthesized into cDNA using a Superscript First Strand cDNA Synthesis Kit (Bioneer, Daejeon, South Korea) and the synthesized cDNA as a template was amplified through polymerase chain reaction (PCR) using primers specific to PPARγ2, 14-3-3β, 14-3-3γ, SREBP-1c, SCD-1, ACC, FABP, FAT/CD36, and β-actin of humans, and was amplified through real-time PCR using primers specific to PPARγ2, 14-3-3β, 14-3-3γ, SREBP-1c, FAT/CD36, and GAPDH of mice. β-actin and GAPDH were used as controls to see whether mRNAs of the respective cells were compared in the same amount.
HepG2 cells were seeded in a 6-well plate at a density of 4×10^5 cells per each well, and then transfected with GFP-14-3-3β DNA (4 μg) or GFP-14-3-3γ DNA (4 μg) using an E-fection plus reagent (Lugen). A ratio of DNA to the E-fection plus reagent was 1:2, and this method was performed according to a manufacturer's manual. After transfection, the cells were treated with 200 μM of oleic acid (OA) for 72 hours, and for mRNA extraction, the corresponding cells were lysed with 1 ml/well of TRIzol (Invitrogen), 200 μl of chloroform was added thereto and mixed well, the resultant cells were maintained at room temperature for 5 minutes and then centrifuged at 12,000×g and 4° C. for 15 minutes, the obtained supernatant was mixed with 500 μl of isopropanol and then put on ice for 10 minutes, and the resulting supernatant was centrifuged at 12,000×g and 4° C. for 15 minutes to remove a supernatant, and then pellets were dissolved with tertiary distilled water treated with diethyl pyrocarbonate (DEPC). 2 μg of mRNA was synthesized into cDNA using a Superscript First Strand cDNA Synthesis Kit (Bioneer, Daejeon, South Korea) and the synthesized cDNA as a template was amplified through polymerase chain reaction (PCR) using primers specific to PPARγ2 (SEQ ID NOS: 1 and 2), 14-3-3β (SEQ ID NOS: 3 and 4), 14-3-3γ (SEQ ID NOS: 5 and 6), SREBP-1c, FAT/CD36, and β-actin of humans, and was amplified through real-time PCR using primers specific to SREBP-1c, FAT/CD36, and GAPDH of mice. β-actin and GAPDH were used as controls to see whether mRNAs of the respective cells were compared in the same amount.

PPAR-RXR complex = target: T1, PPAR-RXR complex (Homo sapiens, UniProt P37231); assay: Formation of the PPAR-RXR complex; assay type: cell-based; conditions: overexpression, FIG. 8C
T1 sequence (P37231 1-505): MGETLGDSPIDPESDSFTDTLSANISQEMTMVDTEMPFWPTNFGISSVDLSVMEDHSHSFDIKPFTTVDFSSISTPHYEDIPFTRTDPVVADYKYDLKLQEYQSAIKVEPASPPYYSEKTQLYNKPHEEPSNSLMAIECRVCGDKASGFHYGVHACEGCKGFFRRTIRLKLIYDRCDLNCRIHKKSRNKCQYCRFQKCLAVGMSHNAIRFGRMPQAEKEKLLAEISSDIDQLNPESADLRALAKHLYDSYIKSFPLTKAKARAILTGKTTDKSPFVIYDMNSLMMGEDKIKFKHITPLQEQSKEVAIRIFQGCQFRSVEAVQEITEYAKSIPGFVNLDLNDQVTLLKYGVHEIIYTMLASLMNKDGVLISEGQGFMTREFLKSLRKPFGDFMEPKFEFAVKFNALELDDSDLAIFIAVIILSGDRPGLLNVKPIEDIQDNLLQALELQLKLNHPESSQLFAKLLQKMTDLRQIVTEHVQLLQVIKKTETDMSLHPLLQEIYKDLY
T1 sequence (P19793 1-462 partner): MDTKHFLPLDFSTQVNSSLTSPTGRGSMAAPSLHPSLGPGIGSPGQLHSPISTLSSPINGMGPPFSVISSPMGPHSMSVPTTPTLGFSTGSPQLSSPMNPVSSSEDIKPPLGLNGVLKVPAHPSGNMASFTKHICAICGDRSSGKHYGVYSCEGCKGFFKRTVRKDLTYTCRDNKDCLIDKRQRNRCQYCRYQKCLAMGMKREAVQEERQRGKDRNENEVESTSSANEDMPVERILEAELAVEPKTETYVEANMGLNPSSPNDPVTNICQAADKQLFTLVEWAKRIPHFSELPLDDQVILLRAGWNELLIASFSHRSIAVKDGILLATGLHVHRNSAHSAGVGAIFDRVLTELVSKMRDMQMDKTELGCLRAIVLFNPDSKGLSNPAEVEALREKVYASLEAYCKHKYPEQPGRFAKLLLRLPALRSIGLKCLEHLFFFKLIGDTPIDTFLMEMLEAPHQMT

| Compound | mRNA expression of PPARγ2 ([1]; oleic acid concentration-dependent, FIG. 6B) | mRNA expression of lipid metabolism-associated genes (PPARγ2 target genes) ([1]; oleic acid concentration-dependent, FIG. 6D) | mRNA expression amounts of 14-3-3β and 14-3-3γ ([1]; oleic acid treatment, FIG. 6B) | mRNA expression of SREBP-1c and FAT/CD36 [1] | formation of the PPAR-RXR complex (PPAR-RXR complex) |
| --- | --- | --- | --- | --- | --- |
| CCCCCCCC/C=C\CCCCCCCC(=O)O [oleic acid] | increased | increased | no changes | – | – |
| 14-3-3β: 14-3-3 isoform protein overexpressed by DNA transfection; increases the transcriptional activity of PPARγ2 by binding to PPARγ2 | – | – | – | further increased | did not affect |
| 14-3-3γ: 14-3-3 isoform protein overexpressed by DNA transfection; decreases the transcriptional activity of PPARγ2; proposed active ingredient | – | – | – | reduced | did not affect |
